Our source for the ΔTm, CC50 and IC50 values is PMC6968685 (Journal of Enzyme Inhibition and Medicinal Chemistry, 2020).

The structures appear in SMILES notation.

Data set [1] deals with FPf1T (DNA, G4) GGGTTTAGGGTTTAGGGTTTAGGG
Put plainly: FRET melting. The following applies: 10 mM K+, 90 mM Li+; 10 mM lithium cacodylate pH 7.2; 2 µM compound, 0.2 µM oligonucleotide.

The test system of data set [2] is F21T (DNA, G4) GGGTTAGGGTTAGGGTTAGGG
Put plainly: FRET melting. The following applies: 10 mM K+, 90 mM Li+; 10 mM lithium cacodylate pH 7.2; 2 µM compound, 0.2 µM oligonucleotide.

The subject of data set [3] is FtrypBT (FEBR1T; FtryBT) (DNA, G4) GGGCAGGGGGTGATGGGGAGGAGCCAGGG
Put plainly: FRET melting. The following applies: 10 mM K+, 90 mM Li+; 10 mM lithium cacodylate pH 7.2; 2 µM compound, 0.2 µM oligonucleotide.

The test system of data set [4] is FPf8T (DNA, G4) GGGTTCAGGGTTCAGGGTTCAGGG
The data set can be described thus: FRET melting. To be noted: 10 mM K+, 90 mM Li+; 10 mM lithium cacodylate pH 7.2; 2 µM compound, 0.2 µM oligonucleotide.

Data set [5] has as its system FdxT (DNA, duplex, hexaethylene glycol linker between nucleotides 10 and 11) TATAGCTATATATAGCTATA
Put plainly: FRET melting. To be noted: 10 mM K+, 90 mM Li+; 10 mM lithium cacodylate pH 7.2; 2 µM compound, 0.2 µM oligonucleotide.

For data set [6], the system named is human HepG2 cells. Put plainly: Cytotoxicity evaluation, MTT. The class given is cell-based. The following applies: HepG2 cells; 72 h. Put shortly: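 HepG2 hepatocarcinoma cells exposed to compound in duplicate, then viability measured by MTT reduction (0.5 mg/ml), formazan dissolved in DMSO and read at 570 nm against 630 nm. Viability expressed as percent of untreated cells; CC50 taken from dose-response curve, doxorubicin as positive control.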

The test system of data set [7] is T. brucei brucei AnTat 1.9. The data set can be described thus: In vitro antitrypanosomal activity, Alamar Blue assay. It counts as cell-based. To be noted: Trypanosoma brucei; slender bloodstream trypomastigotes, AnTat 1.9 strain; read-out: Trypanosoma brucei brucei IC50 values, Trypanos Antat 1.9. The method in brief: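 Bloodstream parasites (2000/well) in supplemented MEM with 20% horse serum exposed to compound in duplicate for 69 h at 37 °C, then Alamar Blue added for 5 h; fluorescence read at ex 530/em 590 nm. IC50 by nonlinear regression, from three independent experiments.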

Data set [8] deals with L. donovani (MHOM/IN/00/DEVI) promastigotes. The data set can be described thus: In vitro antileishmanial activity, MTT assay on promastigotes. It counts as cell-based. To be noted: Leishmania donovani, 72 h incubation, ≥10 = no activity noted at the highest concentration tested. The method in brief: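 Log-phase L. donovani MHOM/IN/00/DEVI promastigotes (10^6/ml, Schneider's + 20% FCS) were exposed to graded compound concentrations (DMSO <0.5% v/v) for 72 h at 27 °C, in duplicate. Growth measured by MTT reduction (4 h, A570 nm); IC50 obtained by regression.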

For the compound `c1cc(CNCCN2CCOCC2)cc(-c2nc(-c3cccc(CNCCN4CCOCC4)c3)c3ccccc3n2)c1`, the ΔTm was 0.5 ± 0.3 °C in data set [1], 0.1 ± 0.1 °C in data set [2], 0.6 ± 0.1 °C in data set [3] and 0.5 ± 0.4 °C in data set [4].

Turning to `COc1ccc2cc(-c3ccc(CNCCCCN(C)C)cc3)nc(-c3ccc(CNCCCCN(C)C)cc3)c2c1`, the ΔTm in data set [1] was 27.3 ± 1.1 °C; in data set [5], 4.1 ± 0.3 °C; in data set [2] it was 22.2 ± 0.1 °C; in data set [3] it was 24.0 ± 0.3 °C; in data set [4], 26.6 ± 0.2 °C.

In turn, `N=C(N)c1ccc(OCCCCCOc2ccc(C(=N)N)cc2)cc1` [Pentamidine, reference compound] displayed a CC50 in data set [6] of 2.3 ± 0.5 µM. In addition, the IC50 was found to be 0.0002 ± 6e-05 µM in data set [7] and 5.5 ± 0.8 µM in data set [8].
